pKi: −log10 of the molar value.
Tests used:
sigma-2 site = sigma-2 site (Homo sapiens, UniProt Q5BJF2); settings: cited from earlier work
sigma-1 site = sigma-1 site (Homo sapiens, UniProt Q99720); settings: cited from earlier work
[1] = tested on: capsaicin-induced mechanical allodynia in mice; test: Effect on capsaicin in development of mechanical allodynia (von Frey filaments); type: in vivo; settings: mice, capsaicin, von Frey filaments
Protocol: Effect on Capsaicin in Development of Mechanical Allodynia This model uses the von-Frey Filaments and is a model to test the effects or symptoms of neuropathic pain, allodynia etc. […]. After habituation mice were according to FIG. 1 first treated with the test-compound (or solvent in controls). Then […] (1% DMSO) is injected into their paw resulting in developing pain in the effected paw. The effected paw is then treated with a mechanical stimulus and the latency time before the paw is withdrawn is measured.

σ2-receptor = target: T1, σ2-receptor (Mus musculus, UniProt Q8VD00); test: Sigma-2 receptor binding, [3H]-DTG, brains from sigma-1 knockout mice
T1 construct: brains from sigma receptor type I (sigma-1) knockout mice were homogenized; from tissue; host or cells: brain membranes of sigma-1 knockout mice
T1 sequence (Q8VD00 1-176): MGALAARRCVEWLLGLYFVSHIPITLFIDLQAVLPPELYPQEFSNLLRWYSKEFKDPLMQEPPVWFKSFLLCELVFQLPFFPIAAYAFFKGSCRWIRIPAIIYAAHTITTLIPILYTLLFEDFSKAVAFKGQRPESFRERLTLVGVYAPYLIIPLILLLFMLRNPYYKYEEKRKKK
Protocol: In brief, brains from sigma receptor type I (sigma-1) knockout mice were homogenized in a volume of 10 mL/g tissue net weight of ice-cold 10 mM Tris-HCl, pH 7.4, containing 320 mM sucrose (Tris-sucrose buffer) with a Potter-Elvehjem homogenizer (10 strokes at 500 r.p.m.) The homogenates were then centrifuged at 1000 g for 10 min at 4° C., and the supernatants were saved. The pellets were resuspended by vortexing in 2 mL/g ice-cold Tris-sucrose buffer and centrifuged again at 1000 g for 10 min. The combined 1000 g supernatants were centrifuged at 31000 g for 15 min at 4° C. The pellets were resuspended by vortexing in 3 mL/g 10 mM Tris-HCl, pH 7.4, and the suspension was kept at 25° C. for 15 min.
The assay tubes contained 10 μL of [^3H]-DTG (final concentration of 3 nM), 400 μL of the tissue suspension (5.3 mL/g in 50 mM Tris-HCl, pH 8.0) to a final assay volume of 0.5 mL. Non-specific binding was defined by addition of a final concentration of 1 μM haloperidol. […] Filters were washed with three times with 5 mL volumes of cold Tris-HCl buffer (10 mM, pH 8.0). Following addition of scintillation cocktail samples were allowed to equilibrate overnight.

[2] = tested on: carrageenan-induced thermal hyperalgesia in mice; test: Carrageenan-induced thermal hyperalgesia model (plantar test, Hargreaves); type: in vivo
Protocol: Some compounds were also evaluated for antinociceptive activity in the carrageenan-induced thermal hyperalgesia model in mice. In this model, two hours after carrageenan injection into the paw, the plantar test was used to assess thermal hyperalgesia according to the method described by Hargreaves et al. (1988). The compounds of Examples 58 and 62.

[3] = tested on: mechanical allodynia after partial sciatic nerve ligation in mice; test: Partial sciatic nerve ligation model of neuropathic pain (von Frey test); type: in vivo; settings: 30 mg/kg s.c.; 11-13 days after surgery
Excerpt: The von Frey test was used to assess mechanical allodynia 11-13 days after surgery.

σ1-receptor = target: T2, σ1-receptor (Cavia porcellus, UniProt Q60492); test: Sigma-1 receptor binding, [3H](+)-pentazocine, brain membranes; parameters: species or system guinea pig
T2 construct: guinea pig brains were homogenized; from tissue; host or cells: guinea pig brain membranes
T2 sequence (Q60492 whole entry): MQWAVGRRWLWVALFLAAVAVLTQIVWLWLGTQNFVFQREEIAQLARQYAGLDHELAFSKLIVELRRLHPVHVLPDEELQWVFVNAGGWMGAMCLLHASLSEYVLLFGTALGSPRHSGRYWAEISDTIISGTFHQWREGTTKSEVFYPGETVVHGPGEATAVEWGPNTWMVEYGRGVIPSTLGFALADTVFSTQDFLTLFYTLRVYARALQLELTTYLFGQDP

Chain of sigma-1 site (Q99720 whole entry): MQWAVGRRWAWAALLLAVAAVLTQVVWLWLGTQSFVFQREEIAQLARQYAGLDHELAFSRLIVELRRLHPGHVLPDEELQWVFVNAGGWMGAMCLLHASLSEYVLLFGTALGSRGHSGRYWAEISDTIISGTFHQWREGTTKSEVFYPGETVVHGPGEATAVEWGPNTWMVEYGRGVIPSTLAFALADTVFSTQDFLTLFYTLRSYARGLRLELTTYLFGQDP
Chain of sigma-2 site (Q5BJF2 whole entry): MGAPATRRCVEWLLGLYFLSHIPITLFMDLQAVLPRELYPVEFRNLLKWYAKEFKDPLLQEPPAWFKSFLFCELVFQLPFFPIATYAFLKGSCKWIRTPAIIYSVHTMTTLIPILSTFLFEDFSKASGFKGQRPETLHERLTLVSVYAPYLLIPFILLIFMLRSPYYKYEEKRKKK

SKF 10047
affinity for the sigma-2 site (sigma-2 site): micromolar affinity | affinity for the sigma-1 site (sigma-1 site): nanomolar affinity

CN(CCC1CCCc2c1cnn2C)Cc1ccccc1.O=C(O)C(=O)O (stereo not shown) [Example 62, N-benzyl-2-(4,5,6,7-tetrahydro-1-methyl-1H-indazol-4-yl)-N-methylethanamine oxalate]
antiallodynic effect [1]: clear antiallodynic effect | inhibition at 1 µM (σ2-receptor; 2 h, tested compound at 10^-6 M, [3H]-DTG 3 nM, read-out: binding sigma-2 (*) % of radioactively labeled compound replaced by the tested compound): 93.5% | pKi (σ2-receptor; [3H]-DTG, sigma-1 knockout mouse brain): 7.92 | analgesia ([2]; 2.5 mg/kg): 40% | analgesia ([2]; 10 mg/kg): 75% | analgesia ([2]; 40 mg/kg): 90% | activity in the carrageenan thermal hyperalgesia model ([2]; mice, two hours after carrageenan): highly active | melting point: 140.2 to 141.7 °C | inhibition of mechanical allodynia [3]: significant inhibition of mechanical allodynia | inhibition at 1 µM (σ1-receptor; 2.5 h, tested compound at 10^-6 M, [3H](+)-pentazocine 0.5 nM, read-out: binding sigma-1 (*) % of radioactively labeled compound replaced by the tested compound): 104% | pKi (σ1-receptor; [3H](+)-pentazocine, guinea pig brain membranes, read-out: binding sigma-1 Ki): 7.95

Reference: patent US8394797B2, “Substituted pyrazole sigma receptor antagonists” (Laboratorios Del Dr. Esteve, S.A., priority 2004, dated 2013)
